From patent US9586986B2, “Substituted 7-deazapurine ribonucleosides for therapeutic uses” (Institute of Organic Chemistry and Biochemistry ASCR, v.v.i., priority 2014, dated 2017) come the findings set out here.

What all share (format): cell-based, human
Assay [1] concerns CCRF-CEM cells. Description: Mitotic cells, pH3Ser10 antibody labeling (flow cytometry). As to conditions: CCRF-CEM cells treated at IC50 for 24 hrs. As for the experimental part: After the incubation period, cells were then washed with cold 1×PBS and fixed in 70% ethanol added dropwise and stored overnight at −20° C. Afterwards, cells were washed in hypotonic citrate buffer, treated with RNase (50 μg/mL) and stained with propidium iodide. Flow cytometry using a 488 nm single-beam laser (Becton Dickinson) was used for measurement. The data were analyzed according to the program ModFitLT (Verity), and apoptosis was expressed as the percentage of cells with a propidium content lower than that in the G0/G1 population. Half of the sample was used for pH3^ser10 antibody (Sigma) labeling and subsequent flow cytometry analysis of mitotic cells.
(§1) However, the major mechanism of action was inhibition of RNA synthesis (BrU incorporation). […] Cell cycle alterations (G1, S, G2/M) were not observed in treated cells under specified experimental conditions.
A general note: Flow cytometry measures light scatter and fluorescence of single cells or particles in a stream.

The subject of assay [2] is CCRF-CEM cells. Briefly: BrdU incorporation analysis (DNA synthesis). As to conditions: for BrdU+ (DNA synthesis), % of total cell populations: CCRF-CEM cells treated at IC50 for 24 hrs; for DNA synthesis inhibition in words: CCRF-CEM, IC50, 24 hours. As for the experimental part: Cells were cultured as for cell cycle analysis. Before harvesting, they were pulse-labelled with 10 M 5-bromo-2′-deoxyuridine (BrdU) for 30 min. The cells were trypsinized, fixed with ice-cold 70% ethanol, incubated on ice for 30 min, washed with PBS, and resuspended in 2 M HCl for 30 min at room temperature to denature their DNA. Following neutralization with 0.1 M Na2B4O7, the cells were washed with PBS containing 0.5% Tween-20 and 1% BSA. They were then stained with primary anti-BrdU antibody (Exbio) for 30 min at room temperature in the dark. Cells were than washed with PBS and stained with secondary anti-mouse-FITC antibody (Sigma). The cells were then washed with PBS, incubated with propidium iodide (0.1 mg/mL) and RNAse A (0.5 mg/mL) for 1 h at room temperature in the dark, and finally analyzed by flow cytometry using a 488 nm single-beam laser (FACSCalibur, Becton Dickinson).
as §1

Assay [3] relates to CCRF-CEM cells. Description: BrU incorporation analysis (RNA synthesis). As to conditions: CCRF-CEM cells treated at IC50 for 24 hrs. As for the experimental part: Cells were cultured and treated as for cell cycle analysis. Before harvesting, they were pulse-labelled with 1 mM 5-bromouridine (BrU) for 30 min. The cells were fixed in 1% buffered paraformaldehyde with 0.05% of NP-40, incubated in room temperature for 15 min and than in the fridge overnight. They were then washed in 1% glycin in PBS, washed in PBS and stained with primary anti-BrdU antibody crossreacting to BrU (Exbio) for 30 min at room temperature in the dark. Cells were than washed with PBS and stained with secondary anti-mouse-FITC antibody (Sigma). Following the staining the cells are washed with PBS and fixed with 1% PBS buffered paraformaldehyde with 0.05% of NP-40. The cells were then washed with PBS, incubated with propidium iodide (0.1 mg/mL) and RNAse A (0.5 mg/mL) for 1 h at room temperature in the dark, and finally analyzed by flow cytometry using a 488 nm single-beam laser (FACSCalibur, Becton Dickinson).
as §1

In the case of `COc1ncnc2c1c(-c1ccco1)cn2[C@@H]1O[C@H](CO)[C@@H](O)[C@H]1O` [Compound 1a, 5-(Furan-2-yl)-4-methoxy-7-(β-D-ribofuranosyl)-7H-pyrrolo[2,3-d]pyrimidine], in the assay on CCRF-CEM cells [1], the “pH3Ser10+ (mitosis), % of total cell populations” value (“pH3Ser10+ (mitosis), %” for short) was 1.4%. For the same molecule, the “BrdU+ (DNA synthesis), % of total cell populations” value (shortened to “BrdU+ (DNA synthesis), %”) in the assay with CCRF-CEM cells [2] came to 45.3%. Besides, in the assay with CCRF-CEM cells [3], the “BrU+ (RNA synthesis), % of total cell populations” value (from here on “BrU+ (RNA synthesis), %”) was 13.8%.

`COc1ncnc2c1c(-c1ccoc1)cn2[C@@H]1O[C@H](CO)[C@@H](O)[C@H]1O` [Compound 1b, 5-(Furan-3-yl)-4-methoxy-7-(β-D-ribofuranosyl)-7H-pyrrolo[2,3-d]pyrimidine]: the “pH3Ser10+ (mitosis), %” value in the assay on CCRF-CEM cells [1] is reported as 1.6%. For the same molecule, in the assay on CCRF-CEM cells [2], the “BrdU+ (DNA synthesis), %” value was 44.2%. Also, the “BrU+ (RNA synthesis), %” value in the assay on CCRF-CEM cells [3] was found to be 0.7%.

For `COc1ncnc2c1c(-c1cccs1)cn2[C@@H]1O[C@H](CO)[C@@H](O)[C@H]1O` [Compound 1c, 4-Methoxy-7-(β-D-ribofuranosyl)-5-(thiophen-2-yl)-7H-pyrrolo[2,3-d]pyrimidine], in the assay on CCRF-CEM cells [1], the “pH3Ser10+ (mitosis), %” value was 1.1%. In addition, in the assay with CCRF-CEM cells [2], the “BrdU+ (DNA synthesis), %” value was 38.6%. In addition, the “BrU+ (RNA synthesis), %” value with CCRF-CEM cells [3] came to 0.1%.

Regarding `COc1ncnc2c1c(-c1ccsc1)cn2[C@@H]1O[C@H](CO)[C@@H](O)[C@H]1O` [Compound 1d, 4-Methoxy-7-(β-D-ribofuranosyl)-5-(thiophen-3-yl)-7H-pyrrolo[2,3-d]pyrimidine], the “pH3Ser10+ (mitosis), %” value with CCRF-CEM cells [1] came to 2.9%. Besides, the “BrdU+ (DNA synthesis), %” value with CCRF-CEM cells [2] was 44.4%. In the assay with CCRF-CEM cells [3], the “BrU+ (RNA synthesis), %” value came out at 0.5%.

As for `COc1ncnc2c1c(I)cn2[C@@H]1O[C@H](CO)[C@@H](O)[C@H]1O` [Compound 1h, 5-iodo-4-methoxy-7-(β-D-ribofuranosyl)-7H-pyrrolo[2,3-d]pyrimidine, reference compound], the “pH3Ser10+ (mitosis), %” value in the assay on CCRF-CEM cells [1] is 0.9%. In addition, in the assay on CCRF-CEM cells [2], the “BrdU+ (DNA synthesis), %” value came out at 38.9% and the “DNA synthesis inhibition in words” value is reported as “barely inhibited”. Moreover, the “BrU+ (RNA synthesis), %” value in the assay on CCRF-CEM cells [3] was 0.2%.

On to `CSc1ncnc2c1c(-c1ccco1)cn2[C@@H]1O[C@H](CO)[C@@H](O)[C@H]1O` [Compound 2a, 5-(Furan-2-yl)-4-methylsulfanyl-7-(β-D-ribofuranosyl)-7H-pyrrolo[2,3-d]pyrimidine], for which the “pH3Ser10+ (mitosis), %” value in the assay on CCRF-CEM cells [1] is 0.7%. In addition, in the assay with CCRF-CEM cells [2], the “BrdU+ (DNA synthesis), %” value turned out to be 29.5% and the “DNA synthesis inhibition in words” value is “barely inhibited”. Besides, the “BrU+ (RNA synthesis), %” value with CCRF-CEM cells [3] amounted to 5%.

As for `CNc1ncnc2c1c(-c1ccco1)cn2[C@@H]1O[C@H](CO)[C@@H](O)[C@H]1O` [Compound 3a, 5-(Furan-2-yl)-4-methylamino-7-(β-D-ribofuranosyl)-7H-pyrrolo[2,3-d]pyrimidine], the “pH3Ser10+ (mitosis), %” value in the assay with CCRF-CEM cells [1] was determined as 1.4%. The “BrdU+ (DNA synthesis), %” value in the assay with CCRF-CEM cells [2] was determined as 47.2%. Moreover, in the assay on CCRF-CEM cells [3], the “BrU+ (RNA synthesis), %” value is 1. %.

In the case of `CN(C)c1ncnc2c1c(-c1ccco1)cn2[C@@H]1O[C@H](CO)[C@@H](O)[C@H]1O` [Compound 4a, 4-Dimethylamino-5-(furan-2-yl)-7-(β-D-ribofuranosyl)-7H-pyrrolo[2,3-d]pyrimidine], the “pH3Ser10+ (mitosis), %” value in the assay with CCRF-CEM cells [1] amounted to 1.5%. Besides, the “BrdU+ (DNA synthesis), %” value in the assay on CCRF-CEM cells [2] is listed as 50.6%. For the same molecule, the “BrU+ (RNA synthesis), %” value in the assay on CCRF-CEM cells [3] turned out to be 0.4%.

In the case of `CN(C)c1ncnc2c1c(-c1ccsc1)cn2[C@@H]1O[C@H](CO)[C@@H](O)[C@H]1O` [Compound 4d, 4-Dimethylamino-7-(β-D-ribofuranosyl)-5-(thiophen-3-yl)-7H-pyrrolo[2,3-d]pyrimidine], the “pH3Ser10+ (mitosis), %” value with CCRF-CEM cells [1] is 0.7%. In addition, in the assay with CCRF-CEM cells [2], the “BrdU+ (DNA synthesis), %” value is 36.1% and the “DNA synthesis inhibition in words” value is “barely inhibited”. Also, the “BrU+ (RNA synthesis), %” value with CCRF-CEM cells [3] worked out at 0.7%.

With `C#Cc1cn([C@@H]2O[C@H](CO)[C@@H](O)[C@H]2O)c2ncnc(N(C)C)c12` [Compound 4g, 4-Dimethylamino-5-ethynyl-7-(β-D-ribofuranosyl)-7H-pyrrolo[2,3-d]pyrimidine], the “pH3Ser10+ (mitosis), %” value with CCRF-CEM cells [1] was found to be 1.3%. The “BrdU+ (DNA synthesis), %” value in the assay with CCRF-CEM cells [2] is on record as 43.4%. Besides, in the assay on CCRF-CEM cells [3], the “BrU+ (RNA synthesis), %” value was 8.6%.

For the molecule `CN(C)c1ncnc2c1c(I)cn2[C@@H]1O[C@H](CO)[C@@H](O)[C@H]1O` [Compound 4h, 4-Dimethylamino-5-iodo-7-(β-D-ribofuranosyl)-7H-pyrrolo[2,3-d]pyrimidine], the “pH3Ser10+ (mitosis), %” value in the assay with CCRF-CEM cells [1] was 1.3%. The “BrdU+ (DNA synthesis), %” value in the assay on CCRF-CEM cells [2] is on record as 48.7%. Further, the “BrU+ (RNA synthesis), %” value with CCRF-CEM cells [3] was found to be 4.8%.
